Experimental data from ChEMBL document CHEMBL1201862, “PubChem BioAssay data set” (2004).
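Cells were grown in 96-well plates and exposed to each compound for 48 hours at five concentrations; endpoints were interpolated linearly between bracketing concentrations, or set to the highest concentration if not reached. The concentration for 50% growth inhibition is given as GI50.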 Activity calls are given as the source filed them. Rule as the data show it: active = GI50 up to about 1.1 µM and inactive = higher.

Experiments:
Assay in all cases: DTP human tumour cell line panel, 48 h
SK-OV-3 = test system: SK-OV-3
OVCAR-4 = test system: OVCAR-4
NCI-H522 = test system: NCI-H522
SK-MEL-28 = test system: SK-MEL-28
SN12C = test system: SN12C
HL-60 = test system: HL-60
A549 = test system: A549
M19-MEL = test system: M19-MEL
UO-31 = test system: UO-31
OVCAR-5 = test system: OVCAR-5
U-251 = test system: U-251
SF-268 = test system: SF-268
COLO 205 = test system: COLO 205
K562 = test system: K562
UACC-257 = test system: UACC-257
HT-29 = test system: HT-29
SK-MEL-2 = test system: SK-MEL-2
DMS-273 = test system: DMS-273
MOLT-4 = test system: MOLT-4
RXF 631 = test system: RXF 631
CCRF-CEM = test system: CCRF-CEM
HOP-18 = test system: HOP-18
DLD-1 = test system: DLD-1
RXF 393 = test system: RXF 393
SW-620 = test system: SW-620
DMS-114 = test system: DMS-114
SF-539 = test system: SF-539
ACHN = test system: ACHN
UACC-62 = test system: UACC-62
NCI-H23 = test system: NCI-H23
SNB-19 = test system: SNB-19
TK-10 = test system: TK-10
KM12 = test system: KM12
KM-20L2 = test system: KM-20L2
SNB-78 = test system: SNB-78
SK-MEL-5 = test system: SK-MEL-5
HOP-62 = test system: HOP-62
M14 = test system: M14
HCT-116 = test system: HCT-116
HCC 2998 = test system: HCC 2998
NCI-H460 = test system: NCI-H460
Malme-3M = test system: Malme-3M
SR = test system: SR
LOX IMVI = test system: LOX IMVI
EKVX = test system: EKVX
A498 = test system: A498
LXFL 529 = test system: LXFL 529
786-0 = test system: 786-0
IGROV-1 = test system: IGROV-1
HCT-15 = test system: HCT-15
OVCAR-3 = test system: OVCAR-3
OVCAR-8 = test system: OVCAR-8
SNB-75 = test system: SNB-75

O=C(O)Cn1c(=O)[nH]c(=O)c2[nH]cnc21
GI50 (SK-OV-3): > 100 µM (inactive)
GI50 (OVCAR-4): > 100 µM (inactive)
GI50 (NCI-H522): > 100 µM (inactive)
GI50 (SK-MEL-28): > 100 µM (inactive)
GI50 (SN12C): > 100 µM (inactive)
GI50 (HL-60): > 100 µM (inactive)
GI50 (A549): > 100 µM (inactive)
GI50 (M19-MEL): > 100 µM (inactive)
GI50 (UO-31): > 100 µM (inactive)
GI50 (OVCAR-5): > 100 µM (inactive)
GI50 (U-251): > 100 µM (inactive)
GI50 (SF-268): > 100 µM (inactive)
GI50 (COLO 205): > 100 µM (inactive)
GI50 (K562): > 100 µM (inactive)
GI50 (UACC-257): > 100 µM (inactive)
GI50 (HT-29): > 100 µM (inactive)
GI50 (SK-MEL-2): > 100 µM (inactive)
GI50 (DMS-273): > 100 µM (inactive)
GI50 (MOLT-4): > 100 µM (inactive)
GI50 (RXF 631): > 100 µM (inactive)
GI50 (CCRF-CEM): > 100 µM (inactive)
GI50 (HOP-18): > 100 µM (inactive)
GI50 (DLD-1): > 100 µM (inactive)
GI50 (RXF 393): > 100 µM (inactive)
GI50 (SW-620): > 100 µM (inactive)
GI50 (DMS-114): > 100 µM (inactive)
GI50 (SF-539): > 100 µM (inactive)
GI50 (ACHN): > 100 µM (inactive)
GI50 (UACC-62): > 100 µM (inactive)
GI50 (NCI-H23): > 100 µM (inactive)
GI50 (SNB-19): > 100 µM (inactive)
GI50 (TK-10): > 100 µM (inactive)
GI50 (KM12): > 100 µM (inactive)
GI50 (KM-20L2): > 100 µM (inactive)
GI50 (SNB-78): > 100 µM (inactive)
GI50 (SK-MEL-5): > 100 µM (inactive)
GI50 (HOP-62): > 100 µM (inactive)
GI50 (M14): > 100 µM (inactive)
GI50 (HCT-116): > 100 µM (inactive)
GI50 (HCC 2998): > 100 µM (inactive)
GI50 (NCI-H460): > 100 µM (inactive)
GI50 (Malme-3M): > 100 µM (inactive)
GI50 (SR): > 100 µM (inactive)
GI50 (LOX IMVI): > 100 µM (inactive)
GI50 (EKVX): > 100 µM (inactive)
GI50 (A498): > 100 µM (inactive)
GI50 (LXFL 529): > 100 µM (inactive)
GI50 (786-0): > 100 µM (inactive)
GI50 (IGROV-1): > 100 µM (inactive)
GI50 (HCT-15): > 100 µM
GI50 (OVCAR-3): > 100 µM (inactive)
GI50 (OVCAR-8): > 100 µM (inactive)
GI50 (SNB-75): > 100 µM (inactive)
